Measured values reported in US8063109B2, “Formulations for parenteral administration of (e)-2, 6-dialkoxystyryl 4-substituted benzylsulfones” (Onconova Therapeutics, Inc., priority 2004, dated 2011).

Tests used:
tumors = test: Synergy with chemotherapeutic agents; assay type: in vivo; settings: often inducing complete regression of tumors
[1] = Long term stability of ON 01910.Na 75 mg/mL in 100% PEG-400 for clinical use (HPLC); assay type: physicochemical
Description: ON 01910.Na IV solution was manufactured at a concentration of 75 mg/mL in 100% PEG-400. The finished product consisted of 3 mL of drug product aseptically filled into presterilized 5 mL vials. The manufacturing was in compliance with current Good Manufacturing Practices regulations.
(a) HPLC—Chromatography is performed using a Phenomenex Luna C-18 (2), 5 micron (4.6 mm×250 mm, PN 00G-4252-E0) column at ambient conditions. The mobile phase used is 60%-0.1% trifluoroacetic acid in water; 40% acetonitrile. The flow rate is set at 2.0 ml/min. Injection volume is 50 μL. Detection is accomplished by means of a UV/VIS detector at 230, 254, and 320 nm. Instrument control and data acquisition is facilitated using a Waters Millennium (V 2.15) software package. The external calibration is obtained using ON 01910.Na standard solutions prepared in 50:50 acetonitrile:water. This analytical method was validated.

[2] = test system: Patients With Advanced Solid Tumors; test: Phase I dose escalation study, 2-hour intravenous infusion; assay type: in vivo, human
Description: Safety and efficacy of this formulation, for example, is tested in a Phase I clinical study, at The Johns Hopkins Sidney Kimmel Cancer Center, Baltimore, Md., i.e., “Phase I Dose Escalation Study Of ON 01910.Na By 2-Hour Intravenous Infusion In Patients With Advanced Solid Tumors”. U.S. FDA IND #66,780. The objectives of this study include an identification of a maximum tolerated dose (MTD) and a recommended dose for further clinical studies. A further object of the study is to establish a safety profile, i.e., to observe any toxicities. The patients in this study have advanced solid tumors that have failed conventional treatments, or for which no approved therapy exists. An object of the study is particularly to observe efficacy (anti-cancer effects).
The patients are administered the preferred formulation described herein of the ON 01910.Na drug (properly diluted in intravenous solution) over a two hour period, twice per week, for three weeks. The patients are subsequently observed for […], to constitute a four week treatment cycle.
This study started with a single patient at the first starting dose level of 80 mg per patient. If there is no grade 2 or worse drug-related toxicity (side effects) observed in the first four week cycle, then another patient may be dosed at the next higher dose level. The first patient was dosed at 80 mg per patient on Aug. 3, 2004. […]

Compound | synergy with chemotherapeutic agents (tumors) | shelf stability ([1]; 75 mg per ml in 100% PEG-400) | long term stability ([1]; 100% PEG-400 formulation for clinical use) | drug-related toxicity ([2]; 80 to 2080 mg per patient, 2 hour iv infusion, twice per week for three weeks, four week cycle) | dose safely administered ([2]; iv 2 hour infusion, twice per week, for 3 weeks, ten days off) [mg]
COc1cc(OC)c(/C=C/S(=O)(=O)Cc2ccc(OC)c(NCC(=O)O)c2)c(OC)c1 [Compound 4, (E)-2,4,6-Trimethoxystyryl-3-(carboxymethylamino)-4-methoxybenzylsulfone] | strong synergy | – | – | – | –
COc1cc(OC)c(/C=C/S(=O)(=O)Cc2ccc(OC)c(NCC(=O)[O-])c2)c(OC)c1.[Na+] [ON 01910.Na, (E)-2,4,6-trimethoxystyryl-3-carboxymethylamino-4-methoxybenzylsulfone] | – | shelf-stable for over one year | extremely stable | no grade 2 or worse toxicities | ≥ 2080
